The record followed here is a melting point compilation (Tetko et al.; mined from patent text by program, amines drawn as free bases though some values may be those of a salt).

Bounds are passed on as bounds.

Broadly, the melting point is the temperature, or range, at which the solid turns liquid. `CN1C[C@@H](C(=O)OC(C)(C)C)NC1=O` returned a melting point of 135 to 136 °C. Under `CC1CCCN1CCCN1C(=C(C#N)C#N)N(CCN2CCCCC2)c2ccccc21` (centres undefined) stands 85 to 86 °C. `CCCC(=O)c1ccc(NC(=S)N2CCN(c3ncnc4cc(OC)c(OC)cc34)CC2)cc1` yielded a melting point of 218 to 219 °C.

`CCOC(=O)c1ccc(-c2ccc(OCCCCCCCCCCCCOC(C)=O)cc2)cc1` gave a melting point of 80.1 to 81.5 °C. To `CNc1nc(-c2cccc(-c3cccnc3)c2)c2cc(OC)c(OC)cc2n1` belongs 186 to 188 °C; to `Cn1cc(C(=O)O)c(=O)c2c3cc(N4CCN(c5ccc(F)c(Cl)c5)CC4)c(Cl)c(F)c3ncc21`, above 260 °C; to `CCCCCCCCCCCCCC/C=C\CNC(=O)OC(C)(C)C`, 42 to 46 °C. For the compound `CCOC(=O)c1ccc(OCCCC2CCN(c3ccc(-c4ccc(F)cc4)nn3)CC2)cc1`, the melting point amounted to 160 °C. Compound `CC(O)C1C(=O)N2C(C(=O)OCc3ccccc3)=CCC12` (centres undefined) gave a melting point of 94 to 99 °C.

In turn, `Cc1cc2c(Cl)nc(N)nc2o1` gave a melting point of 255 to 257 °C. `O=C1CCN(CCCN2c3cccc4cccc(c34)S2(=O)=O)CC1` gave a melting point of 108 °C. `CC(C)(C)C1OC1C(O)c1ccccc1` (centres undefined) showed a melting point of 57 to 59 °C. To `CCCCNc1c(C#N)cnc2cc(F)c(OC)cc12` belongs 155 to 156 °C.

Turning to `Cn1cc(C2=C(c3c[nH]c4cc([N+](=O)[O-])ccc34)C(=O)NC2=O)c2ccccc21`, the melting point is above 260 °C. Under `NC(=O)C(c1cccc(F)c1)N(C(=O)c1cccn2ccnc12)C(F)(F)F` (centres undefined) stands 118 to 120 °C; under `COc1cc(N2CCN(CCc3coc4ccc(F)cc34)CC2)c2ncccc2c1`, 80 °C; under `CCCC(=O)c1ccc(OCCCCC(=O)O)c(Cl)c1Cl`, 102 to 103 °C. `O=C(O)CCc1c(C=C2C(=O)Nc3ccc(Cl)cc32)[nH]c2c1CCCC2` gave a melting point of 370 to 384 °C. In turn, `Cc1oc2c(-c3ccc(F)cc3)c(-c3ccc(S(C)(=O)=O)cc3)nn2c1C` came in with a melting point of 158 to 160 °C.

As for `C#CCOc1cc(C(=O)O)cc([N+](=O)[O-])c1C(=O)c1ccccc1`, the melting point was in the range of 169 to 172 °C. Under `CSc1cc(C)nc(SC)c1NC(=O)CCCBr` stands 139 to 140 °C; under `CC(C)(C)c1cc(Cn2c(=O)n(Cc3cc(C(C)(C)C)c(O)c(C(C)(C)C)c3)c(=O)n(Cc3cc(C(C)(C)C)c(O)c(C(C)(C)C)c3)c2=O)cc(C(C)(C)C)c1O`, 218 to 219 °C. To `CCCS(=O)(=O)c1cc([C@H]2C[C@H](c3cc(OC)c(OC)c(OC)c3)CO2)cc(OC)c1OCc1ccccc1` (relative stereo) belongs 176 to 177 °C.

Compound `O=C1N(CCCl)c2ccc(F)cc2C12SCCCS2` came in with a melting point of 122 °C. `O=Cc1ccc(Oc2ccc(F)cc2)cc1` displayed a melting point of 69 to 73 °C. In the case of `O=[N+]([O-])c1c(Cl)cc(Cl)cc1-c1n[nH]cc1Cl`, the melting point was 173 °C.

The compound `CN(C)CCCSc1cccc2c1NC(=O)CC2c1ccccc1` (centres undefined) registered a melting point of 64 to 66 °C. To `CN(N)C1=Nc2ccc(Cl)cc2C(c2ccccc2)=NC1` belongs 167 to 173 °C; to `Cc1cc(C)cc(N(CCO)Cc2ccc3nc(NCCCN4CCOCC4)n(Cc4nc(C)ccc4O)c3c2)c1`, 180 °C; to `Cc1ccccc1C(=O)Nc1ccc(C(=O)N2CCCC(=O)c3cc(Cl)ccc32)c(C)c1`, 134 to 142 °C. Under `COC1CC(C)(C)Cc2c1c(C)nn2-c1ccccn1` (centres undefined) stands 66 to 68 °C. In the case of `Nc1cccc2c1Cc1ccccc1C2=O`, the melting point fell in the range of 158 to 161 °C. Consider `CCOC(=O)CC1SC(c2cc(C(C)(C)C)c(O)c(C(C)(C)C)c2)N(CCCN(C)CCOc2ccc3c(c2)OCO3)C1=O` (centres undefined), for which the melting point is 88 to 89 °C. For the compound `Cc1cnc(N2CCC(c3ccc(NS(C)(=O)=O)cc3)CC2)n1C`, the melting point is 225 to 226 °C. `c1ccc(C2CN(CCCc3cccnc3)Cc3c2[nH]c2ccccc32)cc1` (centres undefined): the melting point lay within 204 to 206 °C. The compound `Nc1ccc(CN2C(=O)C3(COc4cc5c(cc43)OCCO5)c3ccccc32)cn1` (centres undefined) came in with a melting point of 117 to 119 °C. In turn, `Cc1ccc(Cl)c2nc3cccc(C(=O)O)c3nc12` yielded a melting point of 255 to 257 °C. Under `Cc1ccc(C2CNCc3[nH]c4ccccc4c32)cc1` (centres undefined) stands 223 to 224 °C; under `O=[N+]([O-])c1cc2c(c(Cl)c1OCc1ccccc1)CCCC2`, 80 to 82 °C. Consider `COc1cc(C=O)cc(OC)c1N`, for which the melting point was in the range of 94 to 96 °C.

With `CCOC(=O)C(=O)CC(=O)c1cn(Cc2ccccc2)c2ccccc2c1=O`, the melting point is 141 to 142 °C. Under `COC(=O)c1cc(N2CCCC2)c(Oc2ccccc2)c(S(N)(=O)=O)c1` stands 191 °C; under `CCC(=Cc1ccc(N(C)C)cc1Cl)[N+](=O)[O-]`, 90 to 91 °C; under `COc1ccc(Nc2nc(-c3ccncc3)cs2)nc1`, 213 to 214 °C. The compound `CCc1c(OC)nc2nc(-c3nc(C)no3)cn2c1C` registered a melting point of 204 to 205 °C. To `Cc1c(Cc2ccc(C(C)C)cc2)c2c(c(C)c1NC(=O)CC(C)(C)C)C(O)C(C)(C)O2` (centres undefined) belongs 244 to 245 °C; to `Fc1ccc(Nc2ncnc3cnc(NCCN4CCNCC4)nc23)cc1Cl`, 173 to 175 °C; to `CCOC(=O)C1=C(c2ccc(-n3c(C)nc4cnccc43)cc2)NC(OC)=NC1c1ccccc1Cl` (centres undefined), 228 to 232 °C.

As to `N#Cc1ccc2ccc(Br)cc2c1`, the melting point was 126 to 128 °C. Compound `CCOC(=O)/C(=N\OC1(C)CCCC1)c1csc(N)n1` had a melting point of 94 to 95 °C. Under `COc1ccc(C(=O)Nc2ccc(Cl)cc2)cc1NC(=S)Nc1cc(Cl)cc(Cl)c1` stands 180 to 185 °C. To `O=C1C=CC(=C(c2ccc3ccccc3c2)c2ccc3ccccc3c2)O1` belongs 138 to 140 °C; to `Clc1nc[nH]c2ncc(I)c1-2`, 195 to 196 °C. Compound `COC(=O)C(NC(=O)C1CCCS1)C(C)C` (centres undefined) had a melting point of 55 to 65 °C. The compound `C/C=C(\C(=O)N(CC)CC)c1cc(OC)c(O)c2c(Cc3ccccc3)cccc12` showed a melting point of 86 to 87 °C. To `CC1=CC(OC(=O)c2ccc(N)cc2N)C(O)C(C)(C)CC1=O` (centres undefined) belongs 154 to 156 °C; to `CC(=C(c1ccc(N(C)C)cc1)c1ccc(N(C)C)cc1)P(c1ccccc1)c1ccccc1`, 95 to 97 °C. `CNc1nc(C)ccc1C(=O)OCC#N` registered a melting point of 154 to 157 °C. To `CN(C)C(=O)N[C@H]1CC[C@H](CCN2CCN(c3cccc4c3CCC4)CC2)CC1` belongs 150 to 152 °C. `O=C1Nc2cc(Cl)ccc2C(=O)C1c1cc2ccccc2o1` (centres undefined): the melting point was 342 °C. Compound `COC(=O)c1c(CC#N)ncn1C1OC(COC(C)=O)C(OC(C)=O)C1OC(C)=O` (centres undefined) gave a melting point of 92 to 93 °C. Take `CCC(=O)c1ccc(C(=O)CC)cc1`: the melting point lay in the range of 98 to 101 °C. With `Cc1[nH]cnc1/C=C1\CCc2c(c3ccc(F)cc3n2C)C1=O`, the melting point lay within 290 to 295 °C. `CCOC(=O)C1=C(C)C2=C(CC1)SCCC2=O` registered a melting point of 99 to 100 °C.
